From PubChem BioAssay (NCI)
“And” between values parts separate entries of the source, which are not always exact repeats. Equal values may be shown once.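 Following 48 hours of exposure in 96-well plates, responses at five concentrations were used to interpolate endpoints linearly. Here, GI50 denotes the concentration required for 50% inhibition of growth. TGI: concentration producing complete growth inhibition.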

Columns and labels:
Assay in all cases: growth of human tumour cells (NCI), 48 h
LXFL 529 NSCLC = test system: LXFL 529 NSCLC
SK-MEL-2 melanoma = test system: SK-MEL-2 melanoma
TK-10 renal = test system: TK-10 renal
HL-60(TB) leukemia = test system: HL-60(TB) leukemia
HCT-15 colon = test system: HCT-15 colon
NCI-H226 lung = test system: NCI-H226 lung
SW-620 colon = test system: SW-620 colon
DMS 273 small cell lung = test system: DMS 273 small cell lung
HS 578T breast = test system: HS 578T breast
CAKI-1 renal = test system: CAKI-1 renal

| Structure (SMILES) | TGI (LXFL 529 NSCLC) | TGI (SK-MEL-2 melanoma) | TGI (TK-10 renal) | TGI (HL-60(TB) leukemia) | TGI (HCT-15 colon) | TGI (NCI-H226 lung) | TGI (SW-620 colon) | GI50 (TK-10 renal) | GI50 (HL-60(TB) leukemia) | TGI (DMS 273 small cell lung) | GI50 (HCT-15 colon) | GI50 (SW-620 colon) | GI50 (SK-MEL-2 melanoma) | GI50 (HS 578T breast) | TGI (HS 578T breast) | GI50 (NCI-H226 lung) | GI50 (CAKI-1 renal) | TGI (CAKI-1 renal) | GI50 (LXFL 529 NSCLC) | GI50 (DMS 273 small cell lung) |
| --- | --- | --- | --- | --- | --- | --- | --- | --- | --- | --- | --- | --- | --- | --- | --- | --- | --- | --- | --- | --- |
| NCCn1ccc(NC(c2ccccc2)(c2ccccc2)c2ccccc2)nc1=O | 30.3 µM | 33.4 µM | 85 µM | 38.5 µM | > 100 µM | 32.8 µM | 35.9 µM | – | – | – | – | – | – | – | – | – | – | – | – | – |
| COC1=C(C)C(=O)C2=C(C1=O)C(CO)N1C(C#N)C3CC4C(C1C2N1CCOC41)N3C (stereo not given) | – | 0.0451 µM and 0.038 µM and 0.0364 µM | 4.05 µM and 15.6 µM | – | – | – | 1.41 µM and 1.16 µM and 10.6 µM | 0.247 µM and 0.0437 µM | 0.000183 µM | 0.0722 µM and 0.0676 µM | 0.00146 µM and 0.0129 µM | 0.000811 µM | – | – | – | – | – | – | – | – |
| CCc1nc(-n2c(CC)nc3ccccc3c2=O)nc(N)c1-c1ccc(Cl)cc1 | – | > 100 µM | > 100 µM | > 100 µM | > 100 µM | > 100 µM | > 100 µM | 35.6 µM | > 100 µM | – | 8.91 µM | 5.42 µM | > 100 µM | 48.4 µM | > 100 µM | > 100 µM | 22.3 µM | > 84.3 µM | – | – |
| COc1ccccc1-c1ccc2nc(NC(=O)Nc3cc(C(F)(F)F)cc(C(F)(F)F)c3)sc2c1 | – | 6.09 µM | 13.2 µM | 4.53 µM | 10.6 µM | 5.67 µM | 11.2 µM | 4.03 µM | 2.01 µM | – | 2.55 µM | 3.04 µM | 2.09 µM | 2.35 µM | 7.67 µM | 2.16 µM | 2.33 µM | 6.35 µM | – | – |
| Cc1cc(Nc2cc(CN3CCOCC3)c3nc(C)c(Cc4ccc(Cl)cc4F)n3n2)n[nH]1 | – | 7.64 µM | 6.61 µM | 2.86 µM | 14.9 µM | 4.07 µM | 14.3 µM | 2.14 µM | 0.768 µM | – | 2.62 µM | 1.07 µM | 2.37 µM | 0.915 µM | 5.6 µM | 0.561 µM | 1.74 µM | 4.67 µM | – | – |
| COc1nc2c(cc1S(=O)(=O)c1ccccc1)CCc1c-2cnn1Cc1ccccc1 | – | > 100 µM | > 100 µM | > 100 µM | > 100 µM | > 100 µM | > 100 µM | > 100 µM | 2.95 µM | – | 7.99 µM | > 100 µM | 30.4 µM | 13.3 µM | > 100 µM | 35.8 µM | 5.02 µM | > 100 µM | – | – |
| O=S(=O)(CC#CCCCOCC#Cc1ccccc1C#CCS(=O)(=O)c1ccccc1)c1ccccc1 | – | 47.9 µM | > 100 µM | 50.1 µM | 45.6 µM | 45.7 µM | > 100 µM | > 100 µM | 21.8 µM | – | 22.6 µM | 28.6 µM | 23 µM | 35.2 µM | > 100 µM | 16.6 µM | 13.3 µM | 30.8 µM | – | – |
| COc1cc(/C=C/C(=O)NC[C@]2(O)CCC3C4CCc5cc(O)ccc5C4CCC32C)ccc1O (stereo not given in full) | – | > 100 µM | 14.4 µM | 90.7 µM | > 100 µM | > 100 µM | > 100 µM | 2.76 µM | 3.34 µM | – | 7.41 µM | 34.1 µM | 38.8 µM | 67.6 µM | > 100 µM | 35.1 µM | 46.9 µM | > 100 µM | – | – |
| O=C1c2ccccc2C(=O)c2c(NC(=O)C(Cl)CCl)cccc21 (stereo not given) | – | 12.2 µM | 18.1 µM | 2.68 µM | 23.4 µM | 48.3 µM | 14.7 µM | – | – | – | – | – | – | – | > 100 µM | – | – | 38.8 µM | – | – |
| NC(=S)N/N=C1\C(=O)N(CCc2ccccc2)C(=O)C1C(=O)NCCc1ccccc1 (stereo not given) | > 100 µM | > 100 µM | > 100 µM | – | > 100 µM | > 100 µM | > 100 µM | – | – | > 100 µM | – | – | – | – | – | – | – | > 100 µM | – | – |
| [C-]#[O+].[C-]#[O+].[Ir].[O-]c1ccc2ccccc2c1N=Nc1ccccc1 | – | 49.1 µM | 17.3 µM | 7.76 µM | 19.8 µM | 31.9 µM | 5.37 µM | – | – | – | – | – | – | – | > 100 µM | – | – | 22.7 µM | – | – |
| Cc1cc2c(=O)cc(-c3ccc(C(F)(F)F)cc3)oc2c(C(=O)O)c1C | > 100 µM | > 100 µM | > 100 µM | – | > 100 µM | > 100 µM | > 100 µM | – | – | > 100 µM | – | – | – | – | – | – | – | > 100 µM | – | – |
| COc1ccc(-c2ccc3ncc4c(c3c2)n(-c2ccc(N3CCNCC3)c(C(F)(F)F)c2)c(=O)n4C)cn1 | – | 0.0369 µM and 0.044 µM | 0.0379 µM and 0.109 µM | 0.113 µM | 0.137 µM and 0.186 µM | 0.116 µM | 0.131 µM and 0.132 µM | < 0.01 µM and 0.00865 µM | 0.0143 µM | – | < 0.0104 µM and 0.0127 µM | 0.0103 µM and 0.0117 µM | < 0.01 µM and 0.0101 µM | < 0.01 µM and 0.00197 µM | 0.0181 µM and 0.013 µM | 0.00858 µM | 0.0179 µM and 0.0119 µM | 0.884 µM and 0.118 µM | – | – |
| Clc1nc(Cl)c2ncn(C/C=C/Cn3cnc4c(Cl)nc(Cl)nc43)c2n1 | – | 29.3 µM | 39 µM | > 100 µM | 30.2 µM | 42.9 µM | 22.5 µM | 21.7 µM | 17.3 µM | – | 16.1 µM | 8.72 µM | 14.2 µM | 14.6 µM | 35.1 µM | 22.3 µM | 13.9 µM | 28.1 µM | – | – |
| COc1cccc2c1C(=O)c1c(O)c3c(c(O)c1C2=O)C[C@@](O)(C(=O)CO)C[C@@H]3OC1CC(OC(C)=O)C(OC(C)=O)C(C)O1 (stereo not given in full) | – | 4.95 µM | 6.43 µM | – | 6.75 µM | 1.16 µM | 3.45 µM | 0.985 µM | 0.235 µM | – | 0.491 µM | 0.277 µM | 1.87 µM | – | 4.14 µM | 0.193 µM | 0.18 µM | 1.44 µM | – | – |
| N.N.N.N.N.N#N.[Cl-].[Os+7] | > 100 µM | > 100 µM | > 100 µM | – | > 100 µM | > 100 µM | > 100 µM | > 100 µM | – | > 100 µM | > 100 µM | > 100 µM | > 100 µM | – | – | > 100 µM | > 100 µM | > 100 µM | > 100 µM | > 100 µM |
